Assay results reported in ChEMBL document CHEMBL5303304, “EUbOPEN Chemogenomics Library - IncuCyte” (2023).

Legend:
Assay type in all cases: toxicity, cell-based
HEK-293T = assay: Incucyte cell viability with HEK293T; conditions: human, 10 µM, compound concentration 10 uM
Fibroblast = assay: Incucyte cell viability with human fibroblast; conditions: 10 µM, compound concentration 10 uM
U2OS = assay: Incucyte cell viability with U2OS; conditions: human, 10 µM, compound concentration 10 uM
Note: unitless GR value; below 1 slowed growth and below 0 cell loss.

Structure (SMILES) | Growth Rate (HEK-293T; 0 h, replicate number 1) | Growth Rate (HEK-293T; 0 h, replicate number 2) | Growth Rate (HEK-293T; 24 h, replicate number 2) | Growth Rate (Fibroblast; 0 h, replicate number 1) | Growth Rate (U2OS; 0 h, replicate number 1) | Growth Rate (U2OS; 24 h, replicate number 2) | Growth Rate (HEK-293T; 6 h, replicate number 2) | Growth Rate (HEK-293T; 12 h, replicate number 2) | Growth Rate (HEK-293T; 18 h, replicate number 2) | Growth Rate (HEK-293T; 24 h, replicate number 1) | Growth Rate (Fibroblast; 6 h, replicate number 1) | Growth Rate (Fibroblast; 12 h, replicate number 2) | Growth Rate (Fibroblast; 18 h, replicate number 1) | Growth Rate (Fibroblast; 18 h, replicate number 2) | Growth Rate (Fibroblast; 24 h, replicate number 1) | Growth Rate (Fibroblast; 24 h, replicate number 2) | Growth Rate (U2OS; 6 h, replicate number 1) | Growth Rate (U2OS; 12 h, replicate number 1) | Growth Rate (U2OS; 18 h, replicate number 1) | Growth Rate (HEK-293T; 18 h, replicate number 1) | also measured
Cn1ncc(NC(=O)c2nc(-c3c(F)cccc3F)sc2N)c1N1CC[C@@H](N)[C@H](F)CC1 | -1 | -0.31 | 0.77 | -1 | -1 | 0.96 |  |  |  |  |  |  |  |  |  |  |  |  |  |  | 
Cc1n[nH]c2ncc(C(=O)N3CCC[C@H]3c3ccc(Cl)cc3)cc12 | 0.29 |  | 0.89 |  |  |  | 0.58 | 0.96 | 1 | 1 | 0.75 | 0.76 | 0.66 | 0.99 | 0.73 | 0.92 | 0.34 | 0.67 | 0.94 |  | Growth Rate (U2OS; 24 h, replicate number 1): 0.91
Fc1cccc(-n2cnc3c(NCc4nc5ccc(F)c(F)c5[nH]4)nc(N4CCOCC4)nc32)c1 | -0.62 |  | -0.25 |  |  | 0.38 | -0.21 |  | -0.31 | -0.21 | -0.08 | -0.11 | 0.04 | -0.03 | -0.01 | 0.03 | 0.56 | 0.06 | -0.23 | -0.28 | Growth Rate (HEK-293T; 6 h, replicate number 1): -0.14; Growth Rate (HEK-293T; 12 h, replicate number 1): -0.36; Growth Rate (Fibroblast; 6 h, replicate number 2): -0.22; Growth Rate (Fibroblast; 12 h, replicate number 1): 0.02; Growth Rate (U2OS; 18 h, replicate number 2): 0.61; Growth Rate (U2OS; 24 h, replicate number 1): -0.23
O=C(Nc1snnc1C(=O)Nc1ccc(N2CCCC2)cc1)c1cncc(C(F)(F)F)c1 | 0.43 | 0.78 | 0.9 | -1 | -1 |  | 0.54 | 0.8 | 0.86 | 0.91 |  | 0.11 |  | 0.43 | 0.96 | 0.59 |  | -0.58 |  | 0.92 | Growth Rate (HEK-293T; 12 h, replicate number 1): 0.99; Growth Rate (Fibroblast; 0 h, replicate number 2): -0.64; Growth Rate (Fibroblast; 6 h, replicate number 2): 0.26; Growth Rate (U2OS; 6 h, replicate number 2): 0.89; Growth Rate (U2OS; 12 h, replicate number 2): 0.81
O=C1NC(=NCc2cccs2)SC1=Cc1ccc2ncccc2c1 | -1 | -0.11 | 0.54 | -1 | -1 | 0.39 |  | 0.83 | 0.53 | 0.75 |  |  |  |  |  |  | 0.68 | 0.27 | 0 | 0.84 | Growth Rate (Fibroblast; 0 h, replicate number 2): -0.82; Growth Rate (U2OS; 6 h, replicate number 2): 0.87; Growth Rate (U2OS; 12 h, replicate number 2): 0.54; Growth Rate (U2OS; 18 h, replicate number 2): 0.45; Growth Rate (U2OS; 24 h, replicate number 1): 0.51
COCCNC1CCC(Nc2cc(-c3csc(NCC4(C#N)CCOCC4)n3)c(Cl)cn2)CC1 (stereo unspecified) | -0.55 | 0.97 | -0.35 | -1 | -1 | -0.03 | -0.42 | -0.48 | -0.43 | -0.24 | 0.99 | 0.24 | 0.16 | -0.14 | 0.14 | -0.16 |  |  | -0.21 | -0.33 | Growth Rate (HEK-293T; 6 h, replicate number 1): -0.19; Growth Rate (HEK-293T; 12 h, replicate number 1): -0.33; Growth Rate (Fibroblast; 12 h, replicate number 1): 0.4; Growth Rate (U2OS; 6 h, replicate number 2): 0.51; Growth Rate (U2OS; 12 h, replicate number 2): 0.08; Growth Rate (U2OS; 18 h, replicate number 2): 0.04
